Format in all cases: cell-based, human
The test system of one series is hPSC-derived neurons. The series can be described thus: Survival of cultures maintained in P/S/D in the final differentiation step. As to conditions: 3 uM.
For series [1], the system named is hPSCs. Kind of series: Neuronal induction efficiency, intracellular flow cytometry for TUJ1. As to conditions: day 13. In general terms: In flow cytometry, cells or beads pass a laser one at a time.
Series [2] has as its system hPSCs. Kind of series: Total cell / neuron yield in culture (FIG. 1G). The text has this: FIGS. 1A-1I depict illustrations, images and graphs showing the rapid induction of cortical neurons from human pluripotent stem cells using a combinatorial small molecule-based protocol. FIG. 1A is a schematic illustration of the pathway manipulations to generate neural crest versus forebrain fates and neural precursor versus accelerated neuronal fates. Protocols for the derivation of SOX10+ neural crest precursor, PAX6+ CNS precursors and BRN3A/ISL1+sensory neurons have been reported while the current invention is focused on a strategy for the rapid induction of cortical neurons. […] FIG. 1C depicts graphs of the time-course quantitative analyses of CNS (PAX6::H2B-GFP, left), NC (SOX10::GFP, middle) and placode (SIX1::H2B-GFP, right) induction under the various protocols. […] FIG. 1F is a graph showing the quantification of the TUJ1 data from FIGS. 1D and 1E at day 13 of differentiation by intracellular flow. […] FIG. 1G depicts graphs of the P and S single and combinatorial dose response analyses based on quantification of the percentages of NESTIN+ and TUJ1+ cells by intracellular flow cytometry (upper), and an estimate of the total neurons in culture per cm^2 (for every hPSC plated at day 0 under P1S5D and P8S10D conditions, ˜0.7 and 0.2 neurons were obtained respectively at day 13). […]

The next series deals with AMPA receptors. The series can be described thus: Spontaneous excitatory postsynaptic currents (sEPSCs) recording. As to conditions: P1S5D+none conditions at day 40.
The test system of series [3] is hPSCs. Kind of series: Proliferation (pH3) and cell death (cleaved Caspase 3) after P/S/D treatment. The note with it: for cell proliferation (phospho-Histone 3): as early as 24 hrs after P/S treatment (day 3). The source says: (a) Percentage of mitotic cells expressing phospho-histone 3 (pH3) among total cells at one day after P/S/D treatment (day 3 of differentiation). (b) Percentage of apoptotic cells expressing cleaved caspase 3 (CC3) among total cells at one day after P/S/D treatment (day 3 of differentiation). The conditions highlighted in the dashed line boxes in a,b are the P1 dosage groups aligned by ascending order of S concentration. For a,b, N=4 randomly selected photo frames from each of the 2 independent batches of cell cultures. Statistical analysis was carried out using the Dunnett's multiple comparison test to compare each dosage with LSB+X at day 3 of differentiation. […] (c) Summary of grouped results in a following the order of increasing concentration of P, or increasing concentration of S (d). (e) Summary of grouped results in b following the order of increasing concentration of P, or increasing concentration of S (f). […] Black dots represent values from quantification of individual photos frames. […]
Increased total neuron yields were obtained when lower PD concentrations were combined with SU exposure in an effort to balance neuronal induction efficiency and overall cell toxicity. […] To understand whether reduced yield is due to rapid cell cycle exit or direct toxicity, we measured phospho-Histone 3 (pH3) and cleaved Caspase 3 (CC3) as markers of cell proliferation and death, respectively. […]
EdU was added to the cultures at 5 μM for a window of 48 hrs each starting at various time points of differentiation (day 8, 13, 18, 23, 28, 33), and the cells were fixed at day 40 with 4% paraformaldehyde for 20 mins. EdU was detected with the Click-iT EdU Imaging Kit (Invitrogen) according to the specifications of the manufacturer. Quantification of EdU positive and cortical layer marker positive neurons in the EdU labeling experiments, and the quantification of marker positive neurons and total cells in the long-term culture was carried out using ImageJ with ITCN plugin for nuclei quantification, combined with manual counting. […] All quantification results were plotted in Prism (version 6.0, GraphPad).

The test system of series [4] is hPSCs. Kind of series: qRT-PCR gene expression analysis during differentiation. The note with it: forebrain marker, day 13. The method, then: Cells were lysed with Trizol Reagent (Life Technology) and stored in -20° C. Total RNA was extracted using phenol/chloroform and isopropanol precipitation, and dissolved in ddH2O. cDNA was made using the QuantiTech Reverse Transcription Kit (Qiagen). Quantitative RT-PCR was performed using the Mastercycler […]×2 (Eppendorf), and GAPDH was used as the housekeeping gene control for normalization. Delta Delta Ct and fold changes were calculated and results were plotted in Prism (version 6.0, GraphPad).

A further series has as its system sodium channel.
Setting [5] is: additional treatment on top of PD and SU.

For the compound `Cc1c[nH]c(-c2cnc(NCCNc3ccc(C#N)cn3)nc2-c2ccc(Cl)cc2Cl)n1` [CHIR], the “effect on survival of cultures maintained in P/S/D” value in the series with hPSC-derived neurons is listed as “strong pro-survival effect”.

Take `C[C@H](NC(=O)Cc1cc(F)cc(F)c1)C(=O)N[C@H](C(=O)OC(C)(C)C)c1ccccc1` [DAPT]: in the series on hPSCs [1] (setting [5]), the “efficiency of neuronal induction” value is listed as “further increased”. In addition, the “effect on overall neuron yield” value in the series on hPSCs [2] (setting [5]) is recorded as “did not negatively affect overall neuron yield”.

For `NS(=O)(=O)c1cccc2c1c([N+](=O)[O-])cc1nc(O)c(O)nc12` [NBQX], the “spontaneous excitatory postsynaptic currents (sEPSCs)” value with AMPA receptors is “inhibited”.

`O=C(NOC[C@H](O)CO)c1ccc(F)c(F)c1Nc1ccc(I)cc1F` [PD0325901, N-(2,3-dihydroxy-propoxy)-3,4-difluoro-2-(2-fluoro-4-iodo-phenylamino)-benzamide]: in the series with hPSCs [1] (added to LSB+X, at high concentrations), the “TUJ1+%” value was more than 50%. For the same compound, in the series on hPSCs [2] (at high concentrations, suggesting toxicity), the “yield in total cell numbers” value is “low yield in total cell numbers”. The “cell proliferation (phospho-Histone 3)” value with hPSCs [3] is on record as “reduced cell proliferation”. Also, the FOXG1 induction entry with hPSCs [4] is recorded as “reduced the efficiency of FOXG1 induction”.

Take `Cc1c[nH]c(/C=C2\C(=O)Nc3ccccc32)c1CCC(=O)O` [SU5402, 2-[(1,2-Dihydro-2-oxo-3H-indol-3-ylidene)methyl]-4-methyl-1H-pyrrole-3-pr-opanoic acid]: the “cell proliferation (phospho-Histone 3)” value in the series with hPSCs [3] is reported as “reduced cell proliferation”. Moreover, the “cell death (cleaved Caspase 3)” value in the series on hPSCs [3] (one day after P/S/D treatment (day 3)) is on record as “observed only at high doses”.

Take `NC1=N[C@H](O)[C@H]2[C@H]3O[C@]4(O)O[C@@H]([C@@H](O)[C@@]2(N1)[C@@H]4O)[C@]3(O)CO` [Tetrodotoxin]: the “voltage-dependent sodium channel responses” value in the series on sodium channel is listed as “blocked”.

The record behind these values is patent US20230323294A1, “DIFFERENTIATION OF CORTICAL NEURONS FROM HUMAN PLURIPOTENT STEM CELLS” (priority 2016, published 2023).
